Test results: patent publication US8735426B2, “Vanilloid receptor ligands, pharmaceutical compositions containing them, process for making them and use thereof for treating pain and other conditions” (Gruenenthal GmbH, priority 2007, dated 2014)
pIC50, pKi: −log10 of the molar value.

Experiments:
Format in all cases: cell-based
[1] = target: vanilloid receptor 1 (VR1/TRPV1-Receptor) (Homo sapiens, UniProt Q8NER1); assay: VR1 functional assay following pH-stimulus
[2] = target: T1, vanilloid receptor (VR1) (Homo sapiens, UniProt Q8NER1); assay: Functional FLIPR Ca2+ influx assay in CHO-K1 cells transfected with the VR1 gene, capsaicin stimulus (Pharmacological Method II)
T1 construct: expressed in transfected cells; host or cells: CHO-K1 cells (ECACC), stably transfected
Excerpt: The agonistic or antagonistic action of the substances to be examined on the vanilloid receptor (VR1) can alternatively be determined by the following assay. According to this assay the Ca^2+ influx through the canal is quantified with the aid of a Ca^2+-sensitive dye (type Fluo-4, Molecular Probes, Europe BV, Leiden, Netherlands) in a fluorescent imaging plate reader (FLIPR, Molecular Devices, Sunnyvale, USA).
Chinese hamster ovary cells (CHO-K1 cells, European Collection of Cell Cultures (ECACC) UK) are stably transfected with the VR1 gene. For carrying out functional investigations, these cells are plated on poly-D-lysine-coated, black 96-well plates with a clear bottom (BD Biosciences, Heidelberg, Germany) in a density of 25,000 cells/well. The cells are incubated overnight at 37° C. and 5% CO2 in a culture medium (Nutrient Mixture ‘am’s F12, 10% by volume of FCS (fetal calf serum), 18 μg/ml of L-proline). On the following day the cells are incubated with Fluo-4 (Fluo-4 2 μM, Pluronic F127 0.01 by volume, Molecular Probes in HBSS (Hank's buffered saline solution), Gibco Invitrogen GmbH, Karlsruhe, Germany) for 30 minutes at 37° C. The plates are then washed 3 times with HBSS buffer and, after another incubation over a period of 15 minutes at room temperature, are used in the FLIPR for Ca^2+ measurement. The Ca^2+-dependent fluorescence is measured prior to and following the addition of the substances being examined (wavelength λex=488 nm, λem=540 nm). Quantification is carried out by measuring the highest fluorescence intensity (PC, fluorescence counts) over time.
The FLIPR protocol consists of 2 substance additions. First of all, the substances to be tested (10 μM) are pipetted onto the cells and the Ca^2+ influx is compared with the control (capsaicin 10 μM) (percentage activation based on the Ca^2+ signal following addition of 10 μM of capsaicin). Following incubation over a period of 5 minutes 100 nM of capsaicin are applied and the influx of Ca^2+ is likewise determined.
Desensitizing agonists and antagonists led to a suppression of the Ca^2+ influx. The percentage inhibition compared with the maximum attainable inhibition using 10 μM of capsaicin is calculated.
Based on the percentage displacement effected by different concentrations of the compounds of the general formula I to be tested, IC50 inhibition concentrations are calculated which cause 50 percent displacement of capsaicin. Conversion using the Cheng Prusoff equation gave Ki values for the test substances (Cheng, Prusoff; Bioch. Pharmacol. 22, 3099-3108, 1973).

[3] = target: T2, vanilloid receptor 1 (VR1/TRPV1) (Rattus norvegicus, UniProt O35433); assay: Functional FLIPR Ca2+ influx assay on vanilloid receptor 1, capsaicin stimulus (Pharmacological Method I); conditions: for pKi: capsaicin stimulus
T2 construct: The vertebral column is removed from decapitated rats; from tissue; host or cells: primary cells from rat dorsal root ganglia (DRG)

[4] = target: T1, vanilloid receptor (VR1); assay: Functional FLIPR Ca2+ influx assay in CHO-K1 cells transfected with the VR1 gene, capsaicin stimulus (Pharmacological Method II); conditions: read-out: inhibition (in percent), Human Capsaicin
[5] = read-out: inhibition (in percent), Human following pH-stimulus
[6] = capsaicin, read-out: inhibition (in percent), Rat Capsaicin

Chain of vanilloid receptor 1 (VR1/TRPV1-Receptor) (Q8NER1 whole entry): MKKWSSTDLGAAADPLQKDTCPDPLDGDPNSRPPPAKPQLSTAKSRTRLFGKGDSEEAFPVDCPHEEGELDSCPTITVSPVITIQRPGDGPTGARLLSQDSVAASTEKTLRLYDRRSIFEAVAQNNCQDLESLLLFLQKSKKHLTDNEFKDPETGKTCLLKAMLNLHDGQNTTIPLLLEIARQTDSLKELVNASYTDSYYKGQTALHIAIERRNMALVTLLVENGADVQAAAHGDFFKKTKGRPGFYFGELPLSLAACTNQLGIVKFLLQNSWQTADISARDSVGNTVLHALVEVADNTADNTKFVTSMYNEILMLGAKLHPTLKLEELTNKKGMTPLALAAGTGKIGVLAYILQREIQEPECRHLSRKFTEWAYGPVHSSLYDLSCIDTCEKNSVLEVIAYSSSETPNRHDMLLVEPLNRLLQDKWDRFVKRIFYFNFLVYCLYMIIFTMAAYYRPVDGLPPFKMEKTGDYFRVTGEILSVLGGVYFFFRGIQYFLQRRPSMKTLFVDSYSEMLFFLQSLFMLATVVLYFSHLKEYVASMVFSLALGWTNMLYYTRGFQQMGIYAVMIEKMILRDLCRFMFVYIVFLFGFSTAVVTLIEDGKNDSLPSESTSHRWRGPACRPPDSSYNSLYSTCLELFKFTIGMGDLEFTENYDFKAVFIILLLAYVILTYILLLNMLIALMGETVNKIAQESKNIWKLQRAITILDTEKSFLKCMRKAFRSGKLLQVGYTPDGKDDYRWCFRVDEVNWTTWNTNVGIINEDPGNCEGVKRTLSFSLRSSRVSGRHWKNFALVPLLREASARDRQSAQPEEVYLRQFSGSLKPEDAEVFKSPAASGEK
T1 sequence (Q8NER1 whole entry): as above
T2 sequence (O35433 whole entry): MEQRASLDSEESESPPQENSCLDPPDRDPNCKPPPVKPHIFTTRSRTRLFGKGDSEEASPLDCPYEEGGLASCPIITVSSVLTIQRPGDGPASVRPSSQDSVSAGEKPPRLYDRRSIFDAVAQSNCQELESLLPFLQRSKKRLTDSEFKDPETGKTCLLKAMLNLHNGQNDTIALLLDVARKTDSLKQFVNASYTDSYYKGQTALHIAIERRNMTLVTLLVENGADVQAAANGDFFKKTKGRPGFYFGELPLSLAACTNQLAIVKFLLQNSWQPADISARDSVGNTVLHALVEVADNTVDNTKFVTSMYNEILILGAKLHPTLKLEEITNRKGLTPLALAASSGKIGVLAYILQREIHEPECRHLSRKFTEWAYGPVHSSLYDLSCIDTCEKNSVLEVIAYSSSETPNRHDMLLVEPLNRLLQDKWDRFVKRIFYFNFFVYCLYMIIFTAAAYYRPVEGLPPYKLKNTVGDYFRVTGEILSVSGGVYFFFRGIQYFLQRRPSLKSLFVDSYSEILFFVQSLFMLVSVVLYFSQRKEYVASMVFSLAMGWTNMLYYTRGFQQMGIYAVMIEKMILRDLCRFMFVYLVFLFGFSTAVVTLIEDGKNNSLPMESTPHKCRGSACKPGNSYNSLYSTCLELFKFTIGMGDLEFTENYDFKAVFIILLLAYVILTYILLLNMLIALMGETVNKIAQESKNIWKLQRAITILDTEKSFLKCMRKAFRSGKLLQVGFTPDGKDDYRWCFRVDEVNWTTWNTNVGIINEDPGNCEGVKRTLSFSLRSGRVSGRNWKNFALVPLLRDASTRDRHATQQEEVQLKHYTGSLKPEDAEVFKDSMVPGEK

Row | pIC50 [1] | pKi [2] | pKi [3] | Structure (SMILES) | other results
1 | 6.93 | 7.51 |  | CC1CCN(c2nc(C(F)(F)F)ccc2CNC(=O)C(c2ccc(NS(C)(=O)=O)c(F)c2)C2CCCCC2)CC1 (centres unmarked) [Example 1, 2-Cyclohexyl-2-(3-fluoro-4-(methylsulfonamido)phenyl)-N-((2-(4-methylpiperidin-1-yl)-6-(trifluoromethyl)pyridin-3-yl)methyl)acetamide] | 
2 | 5.86 |  | 7.01 | CS(=O)(=O)Nc1ccc(C(C(=O)NCc2ccc(C(F)(F)F)nc2SC2CCCCC2)C2CCCCC2)cc1F (centres unmarked) [Example 2, 2-Cyclohexyl-N-((2-(cyclohexylthio)-6-(trifluoromethyl)pyridin-3-yl)methyl)-2-(3-fluoro-4-(methylsulfonamido)phenyl)acetamide] | inhibition at 1 µM [4]: 2%; inhibition at 5 µM [4]: 31%
3 | 7.10 | 8.89 |  | CC1CCN(c2nc(C(F)(F)F)ccc2CNC(=O)C(c2ccccc2)c2ccc(NS(C)(=O)=O)c(F)c2)CC1 (centres unmarked) [Example 3, 2-(3-Fluoro-4-(methylsulfonamido)phenyl)-N-((2-(4-methylpiperidin-1-yl)-6-(trifluoromethyl)pyridin-3-yl)methyl)-2-phenylacetamide] | 
4 | 5.80 | 7.20 |  | CS(=O)(=O)Nc1ccc(C(C(=O)NCc2ccc(C(F)(F)F)nc2SC2CCCCC2)c2ccccc2)cc1F (centres unmarked) [Example 4, N-((2-(Cyclohexylthio)-6-(trifluoromethyl)pyridin-3-yl)methyl)-2-(3-fluoro-4-(methylsulfonamido)phenyl)-2-phenylacetamide] | 
5 | 6.05 | 7.31 | 7.34 | CC1CCN(c2nc(C(F)(F)F)ccc2CNC(=O)C(C)(C)c2ccc(NS(C)(=O)=O)c(F)c2)CC1 [Example 5, 2-(3-Fluoro-4-(methylsulfonamido)phenyl)-2-methyl-N-((2-(4-methylpiperidin-1-yl)-6-(trifluoromethyl)pyridin-3-yl)methyl)propanamide] | 
6 |  | 7.18 | 7.46 | CC(C)(C(=O)NCc1ccc(C(F)(F)F)nc1SC1CCCCC1)c1ccc(NS(C)(=O)=O)c(F)c1 [Example 6, N-((2-(Cyclohexylthio)-6-(trifluoromethyl)pyridin-3-yl)methyl)-2-(3-fluoro-4-(methylsulfonamido)phenyl)-2-methylpropanamide] | inhibition at 0.1 µM ([1]; @ 0.1 μM, read-out: inhibition (in percent), Human following pH-stimulus): 4%; inhibition at 1 µM [1, 5]: 20%; inhibition at 5 µM [1, 5]: 42%; inhibition at 10 µM [1, 5]: 54%
7 |  | 6.91 | 7.42 | CCC(C)(C(=O)NCc1ccc(C(F)(F)F)nc1N1CCC(C)CC1)c1ccc(NS(C)(=O)=O)c(F)c1 (centres unmarked) [Example 7, 2-(3-Fluoro-4-(methylsulfonamido)phenyl)-2-methyl-N-((2-(4-methylpiperidin-1-yl)-6-(trifluoromethyl)pyridin-3-yl)methyl)butanamide] | inhibition at 1 µM [1, 5]: 0%; inhibition at 5 µM [1, 5]: 15%; inhibition at 10 µM [1, 5]: 18%
8 |  |  |  | CCC(C)(C(=O)NCc1ccc(C(F)(F)F)nc1SC1CCCCC1)c1ccc(NS(C)(=O)=O)c(F)c1 (centres unmarked) [Example 8, N-((2-(Cyclohexylthio)-6-(trifluoromethyl)pyridin-3-yl)methyl)-2-(3-fluoro-4-(methylsulfonamido)phenyl)-2-methylbutanamide] | inhibition at 1 µM [3, 6]: 26%; inhibition at 5 µM [3, 6]: 99%; inhibition at 1 µM [4]: 0%; inhibition at 5 µM [4]: 80%; inhibition at 5 µM [1, 5]: 0%; inhibition at 10 µM [1, 5]: 20%
9 |  |  |  | CC1CCN(c2nc(C(F)(F)F)ccc2CNC(=O)C2(c3ccc(NS(C)(=O)=O)c(F)c3)CCCC2)CC1 [Example 13, 1-(3-Fluoro-4-(methylsulfonamido)phenyl)-N-((2-(4-methylpiperidin-1-yl)-6-(trifluoromethyl)pyridin-3-yl)methyl)cyclopentanecarboxamide] | inhibition at 0.1 µM ([3]; @ 0.1 μM, capsaicin, read-out: inhibition (in percent), Rat Capsaicin): 0%; inhibition at 1 µM [3, 6]: 27%; inhibition at 5 µM [3, 6]: 43%; inhibition at 1 µM [4]: 0%; inhibition at 5 µM [4]: 25%
10 |  |  |  | CS(=O)(=O)Nc1ccc(C2(C(=O)NCc3ccc(C(F)(F)F)nc3SC3CCCCC3)CCCCC2)cc1F [Example 16, N-((2-(Cyclohexylthio)-6-(trifluoromethyl)pyridin-3-yl)methyl)-1-(3-fluoro-4-(methylsulfonamido)phenyl)cyclohexanecarboxamide] | inhibition at 1 µM [3, 6]: 15%; inhibition at 5 µM [3, 6]: 69%
11 | 6.02 | 7.05 | 7.69 | CC1CCN(c2nc(C(F)(F)F)ccc2CNC(=O)C(c2ccc(NS(C)(=O)=O)c(F)c2)C2CCCC2)CC1 (centres unmarked) [Example 21, 2-Cyclopentyl-2-(3-fluoro-4-(methylsulfonamido)phenyl)-N-((2-(4-methylpiperidin-1-yl)-6-(trifluoromethyl)pyridin-3-yl)methyl)acetamide] | 
12 |  | 6.99 | 7.50 | CS(=O)(=O)Nc1ccc(C(C(=O)NCc2ccc(C(F)(F)F)nc2SC2CCCCC2)C2CCCC2)cc1F (centres unmarked) [Example 22, N-((2-(Cyclohexylthio)-6-(trifluoromethyl)pyridin-3-yl)methyl)-2-cyclopentyl-2-(3-fluoro-4-(methylsulfonamido)phenyl)acetamide] | inhibition at 1 µM [1, 5]: 0%; inhibition at 5 µM [1, 5]: 27%; inhibition at 10 µM [1, 5]: 46%
13 | 7.67 | 8.62 |  | CC1CCN(c2nc(C(F)(F)F)ccc2CNC(=O)C(c2cccc(F)c2)c2ccc(NS(C)(=O)=O)c(F)c2)CC1 (centres unmarked) [Example 34, 2-(3-Fluoro-4-(methylsulfonamido)phenyl)-2-(3-fluorophenyl)-N-((2-(4-methylpiperidin-1-yl)-6-(trifluoromethyl)pyridin-3-yl)methyl)acetamide] | 
14 | 6.61 | 8.47 | 7.87 | CC1CCN(c2nc(C(F)(F)F)ccc2CNC(=O)C(c2ccc(F)cc2)c2ccc(NS(C)(=O)=O)c(F)c2)CC1 (centres unmarked) [Example 35, 2-(3-Fluoro-4-(methylsulfonamido)phenyl)-2-(4-fluorophenyl)-N-((2-(4-methylpiperidin-1-yl)-6-(trifluoromethyl)pyridin-3-yl)methyl)acetamide] | 
15 | 5.50 | 7.37 | 6.96 | Cc1ccccc1C(C(=O)NCc1ccc(C(F)(F)F)nc1N1CCC(C)CC1)c1ccc(NS(C)(=O)=O)c(F)c1 (centres unmarked) [Example 40, 2-(3-Fluoro-4-(methylsulfonamido)phenyl)-N-((2-(4-methylpiperidin-1-yl)-6-(trifluoromethyl)pyridin-3-yl)methyl)-2-o-tolylacetamide] | 
16 | 7.06 | 10.00 | 8.74 | Cc1cccc(C(C(=O)NCc2ccc(C(F)(F)F)nc2N2CCC(C)CC2)c2ccc(NS(C)(=O)=O)c(F)c2)c1 (centres unmarked) [Example 41, 2-(3-Fluoro-4-(methylsulfonamido)phenyl)-N-((2-(4-methylpiperidin-1-yl)-6-(trifluoromethyl)pyridin-3-yl)methyl)-2-m-tolylacetamide] | 
17 | 7.50 | 8.96 | 8.20 | Cc1ccc(C(C(=O)NCc2ccc(C(F)(F)F)nc2N2CCC(C)CC2)c2ccc(NS(C)(=O)=O)c(F)c2)cc1 (centres unmarked) [Example 42, 2-(3-Fluoro-4-(methylsulfonamido)phenyl)-N-((2-(4-methylpiperidin-1-yl)-6-(trifluoromethyl)pyridin-3-yl)methyl)-2-p-tolylacetamide] | 
18 |  |  | 6.80 | Cc1ccc(CC(C(=O)NCc2ccc(C(F)(F)F)nc2N2CCC(C)CC2)c2ccc(NS(C)(=O)=O)c(F)c2)cc1 (centres unmarked) [Example 77, 2-(3-Fluoro-4-(methylsulfonamido)phenyl)-N-((2-(4-methylpiperidin-1-yl)-6-(trifluoromethyl)pyridin-3-yl)methyl)-3-p-tolylpropanamide] | inhibition at 1 µM [4]: 0%; inhibition at 5 µM [4]: 17%
